In general, IC50 refers to the concentration that inhibits the measured activity by half.

In one series the test system is CYP3A enzyme. More on the design: method as in previous studies. To be noted: ref previous studies; cited from earlier work.
Series [1] concerns the target CYP3A4 (Homo sapiens, UniProt P08684). In words: CYP3A4 inhibition in human liver microsomes (midazolam 1-hydroxylation, nifedipine oxidation). To be noted: extracts 2 mg/mL, secondary metabolites 100 μM.
Series [2] addresses T1, P-gp (Homo sapiens, UniProt P08183). To be noted: Caco-2; epicatechin 100 μM; reduced P app(B–A) and efflux of fexofenadine. (In general: Caco-2 cells form a polarised layer with tight junctions and transporters.)
Series [3] addresses T1, P-gp. Set-up: determining P-gp activity, using a Caco-2 cell model; host or cells: Caco-2 cells; method as in Kitagawa et al. To be noted: KB-C2 cells; ref Kitagawa et al.; cited from earlier work.
The test system of series [4] is CYP3A4. More on the design: method as in Kimura et al. To be noted: ref Kimura et al., cited from earlier work; for inhibition of 6β-hydroxylation of testosterone: concentration of 100 μM; for IC50: read-out: IC50, 6β-hydroxylation of testosterone.

Chain of CYP3A4 (Homo sapiens, UniProt P08684) (P08684 whole entry): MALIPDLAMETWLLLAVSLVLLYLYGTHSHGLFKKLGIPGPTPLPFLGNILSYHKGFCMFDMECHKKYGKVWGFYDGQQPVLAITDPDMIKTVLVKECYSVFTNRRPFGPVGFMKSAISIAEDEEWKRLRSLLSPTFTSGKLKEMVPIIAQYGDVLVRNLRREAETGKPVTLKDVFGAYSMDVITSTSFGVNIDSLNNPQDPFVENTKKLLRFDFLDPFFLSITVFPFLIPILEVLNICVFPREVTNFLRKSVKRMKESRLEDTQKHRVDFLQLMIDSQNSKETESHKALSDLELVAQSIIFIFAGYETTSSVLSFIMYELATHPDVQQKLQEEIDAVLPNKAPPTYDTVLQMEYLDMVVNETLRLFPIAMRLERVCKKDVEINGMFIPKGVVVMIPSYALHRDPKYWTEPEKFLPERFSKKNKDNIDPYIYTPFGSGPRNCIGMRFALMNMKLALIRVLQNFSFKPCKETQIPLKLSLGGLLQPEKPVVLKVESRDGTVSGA
T1 sequence (P08183 whole entry): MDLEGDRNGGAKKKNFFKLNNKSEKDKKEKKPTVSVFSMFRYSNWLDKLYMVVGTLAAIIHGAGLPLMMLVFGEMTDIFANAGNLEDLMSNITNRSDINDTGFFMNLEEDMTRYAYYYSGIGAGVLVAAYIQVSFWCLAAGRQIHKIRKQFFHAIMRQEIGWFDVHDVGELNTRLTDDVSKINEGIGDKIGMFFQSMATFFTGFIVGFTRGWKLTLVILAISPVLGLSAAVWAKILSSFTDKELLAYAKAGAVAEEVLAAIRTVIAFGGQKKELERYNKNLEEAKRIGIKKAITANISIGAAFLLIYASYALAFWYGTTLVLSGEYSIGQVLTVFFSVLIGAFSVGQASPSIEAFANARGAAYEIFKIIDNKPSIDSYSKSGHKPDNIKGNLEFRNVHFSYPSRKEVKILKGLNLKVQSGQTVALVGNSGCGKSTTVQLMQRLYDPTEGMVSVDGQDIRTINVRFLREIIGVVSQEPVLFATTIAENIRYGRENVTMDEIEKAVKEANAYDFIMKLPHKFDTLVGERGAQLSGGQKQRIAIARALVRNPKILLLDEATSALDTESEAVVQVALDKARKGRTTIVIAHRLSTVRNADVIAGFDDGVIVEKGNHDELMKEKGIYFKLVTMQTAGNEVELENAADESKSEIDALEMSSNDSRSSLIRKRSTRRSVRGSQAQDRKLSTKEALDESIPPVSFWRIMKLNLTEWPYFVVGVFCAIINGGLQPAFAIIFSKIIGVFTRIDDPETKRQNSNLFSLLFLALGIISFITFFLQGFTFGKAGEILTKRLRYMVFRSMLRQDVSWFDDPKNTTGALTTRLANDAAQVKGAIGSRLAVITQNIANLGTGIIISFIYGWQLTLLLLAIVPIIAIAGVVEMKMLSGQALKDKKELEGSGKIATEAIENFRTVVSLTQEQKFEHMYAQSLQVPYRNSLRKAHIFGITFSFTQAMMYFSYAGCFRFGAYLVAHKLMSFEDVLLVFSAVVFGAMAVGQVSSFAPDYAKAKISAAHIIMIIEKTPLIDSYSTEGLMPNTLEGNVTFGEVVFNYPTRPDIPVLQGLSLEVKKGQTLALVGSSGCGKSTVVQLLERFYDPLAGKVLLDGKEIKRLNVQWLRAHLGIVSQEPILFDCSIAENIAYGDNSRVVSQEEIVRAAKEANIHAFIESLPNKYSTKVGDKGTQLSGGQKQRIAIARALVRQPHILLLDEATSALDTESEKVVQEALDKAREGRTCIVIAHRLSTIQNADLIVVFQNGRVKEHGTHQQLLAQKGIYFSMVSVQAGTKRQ

`O.Oc1cc(O)c2c(c1)O[C@H](c1ccc(O)c(O)c1)[C@@H](O)C2` [catechin]: in the series with CYP3A enzyme, the “inhibitory activity on the CYP3A enzyme, testosterone 6β-hydroxylation” value is reported as “higher than 50%”. Further, at CYP3A4 [1], the “remaining activity (%RA) of CYP3A4, substrate reaction not specified” value is “higher than 50%”.

Turning to `Oc1cc(O)c2c(c1)O[C@H](c1ccc(O)c(O)c1)[C@H](O)C2` [epicatechin], the “P-gp inhibitory potential (in words)” value on P-gp [2] is on record as “slight inhibitory potential”. For the same molecule, the “inhibitory activity on the CYP3A enzyme, testosterone 6β-hydroxylation” value in the series on CYP3A enzyme is on record as 50%. Further, at P-gp [3], the “effect on P-gp activity (in words)” value is on record as “did not observe any effect”.

With `O=c1c(O)c(-c2ccc(O)cc2)oc2cc(O)cc(O)c12` [kaempferol], in the series on CYP3A4 [4], the “inhibition of 6β-hydroxylation of testosterone” value is reported as 100% and the IC50 was 8.8 µM.

For the molecule `O=c1c(O)c(-c2ccc(O)c(O)c2)oc2cc(O)cc(O)c12` [quercetin], in the series on CYP3A4 [4], the “inhibition of 6β-hydroxylation of testosterone” value is listed as […] and the concentration for half-maximal inhibition (IC50) was […]. For the same molecule, at CYP3A4 [1] (negative control = 100%), the “remaining activity (%RA), midazolam 1-hydroxylation” value is given as “markedly inhibited” and the “remaining activity (%RA), nifedipine oxidation” value is “markedly inhibited”.
